The target of one data set is T1, human Src kinase (Homo sapiens, UniProt P12931).
T1 construct: full length recombinant human Src kinase (from Upstate Biotechnology, cat. no. 14-117); purchased Upstate Biotechnology 14-117; host or cells: baculo viral cells
In words: SRC inhibition assay (radioactivity-based or spectrophotometric assay). The data set is classed as biochemical. Particulars: recombinant human Src kinase, assay A or B. The procedure:
The compounds were evaluated as inhibitors of human Src kinase using either a radioactivity-based assay or spectrophotometric assay. The compounds were assayed as inhibitors of full length recombinant human Src kinase (from Upstate Biotechnology, cat. no. 14-117) expressed and purified from baculo viral cells. […] P-0275). […] In a typical assay, all the reaction components with the exception of ATP were pre-mixed and aliquoted into assay plate wells. […] The assay plate was incubated at 30° C. for 10 min before initiating the reaction with ^33P-ATP. After 20 min of reaction, the reactions were quenched with 150 μl of 10% trichloroacetic acid (TCA) containing 20 mM Na3PO4. The quenched samples were then transferred to a 96-well filter plate (Whatman, UNI-Filter GF/F Glass Fiber Filter, cat no. 7700-3310) installed on a filter plate vacuum manifold. Filter plates were washed four times with 10% TCA containing 20 mM Na3PO4 and then 4 times with methanol. 200 μl of scintillation fluid was then added to each well. The plates were sealed and the amount of radioactivity associated with the filters was quantified on a TopCount scintillation counter. The radioactivity incorporated was plotted as a function of the inhibitor concentration. The data was fitted to a competitive inhibition kinetics model to get the Ki for the compound. The ADP produced from ATP by the human recombinant Src kinase-catalyzed phosphorylation of poly Glu-Tyr substrate was quanitified using a coupled enzyme assay (Fox et al (1998) Protein Sci 7, 2249). In this assay one molecule of NADH is oxidised to NAD for every molecule of ADP produced in the kinase reaction. The disappearance of NADH can be conveniently followed at 340 nm. […] In a typical assay, all the reaction components with the exception of ATP were pre-mixed and aliquoted into assay plate wells. […] The absorbance change at 340 nm with time, the rate of the reaction, was monitored on a molecular devices plate reader. The data of rate as a function of the inhibitor concentration was fitted to competitive inhibition kinetics model to get the Ki for the compound.

Another data set concerns the target T2, GSK-3β (AA 1-420) (Homo sapiens, UniProt P49841).
T2 construct: GSK-3β (AA 1-420)
In words: Ki determination for the inhibition of GSK-3 (coupled enzyme system). The class given is biochemical. Particulars: 20 μM ATP, 20 nM GSK-3β, 30° C. A digest of the protocol: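 GSK-3β (AA 1-420, 20 nM) was run in a pyruvate kinase/LDH-coupled NADH assay in 100 mM HEPES pH 7.5, 10 mM MgCl2, 25 mM NaCl, 1 mM DTT, 1.5% DMSO, with 300 μM phosphopeptide substrate. Compound (0.002–30 μM) was preincubated 10 min at 30° C, then 20 μM ATP was added.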

The target in another data set is T3, Aurora-2 (Homo sapiens, UniProt O14965).
T3 sequence (O14965 1-403): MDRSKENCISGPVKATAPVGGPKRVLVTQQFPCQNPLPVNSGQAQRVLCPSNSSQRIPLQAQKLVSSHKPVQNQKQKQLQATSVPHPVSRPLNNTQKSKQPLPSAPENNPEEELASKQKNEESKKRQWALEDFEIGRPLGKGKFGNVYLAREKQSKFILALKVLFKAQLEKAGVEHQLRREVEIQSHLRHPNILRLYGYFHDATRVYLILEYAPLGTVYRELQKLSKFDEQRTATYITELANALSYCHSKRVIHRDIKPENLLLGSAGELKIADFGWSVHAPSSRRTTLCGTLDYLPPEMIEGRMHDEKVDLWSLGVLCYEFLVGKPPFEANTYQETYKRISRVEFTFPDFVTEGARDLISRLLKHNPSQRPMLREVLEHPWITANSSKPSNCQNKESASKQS
In words: Ki determination for the inhibition of Aurora-2 (coupled enzyme assay). The data set is classed as biochemical. Particulars: 70 nM Aurora-2, 30° C. A digest of the protocol: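 Ki came from reaction rates plotted against inhibitor concentration, with rates taken as A340 decrease over 5 min at 30° C. Enzyme (70 nM final) was added after 10 min compound preincubation; stock buffer held […], 800 μM LRRASLG, PK/LDH coupling, pH 7.5.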

20 compounds from US6653300B2, “Pyrazole compounds useful as protein kinase inhibitors” (Vertex Pharmaceuticals Incorporated, priority 2000, dated 2003) can be followed below.

Read-outs that look alike come from different tables or passages of the source. Some results are limits rather than exact numbers.

T1 sequence (P12931 whole entry): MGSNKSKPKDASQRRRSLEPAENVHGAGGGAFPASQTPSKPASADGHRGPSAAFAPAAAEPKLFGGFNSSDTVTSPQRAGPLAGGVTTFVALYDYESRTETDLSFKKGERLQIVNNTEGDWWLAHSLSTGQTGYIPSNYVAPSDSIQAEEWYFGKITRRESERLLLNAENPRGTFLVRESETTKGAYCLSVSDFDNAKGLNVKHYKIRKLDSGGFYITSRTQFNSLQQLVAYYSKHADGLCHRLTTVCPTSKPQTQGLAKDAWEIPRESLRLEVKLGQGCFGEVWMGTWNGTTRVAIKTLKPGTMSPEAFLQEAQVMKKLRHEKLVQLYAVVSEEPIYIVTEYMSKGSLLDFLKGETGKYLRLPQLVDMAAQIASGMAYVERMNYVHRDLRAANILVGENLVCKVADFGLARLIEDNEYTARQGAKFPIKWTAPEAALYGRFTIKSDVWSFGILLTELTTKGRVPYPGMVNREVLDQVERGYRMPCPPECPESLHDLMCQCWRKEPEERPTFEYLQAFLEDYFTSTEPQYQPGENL
T2 sequence (P49841 whole entry, the tested form may be a part): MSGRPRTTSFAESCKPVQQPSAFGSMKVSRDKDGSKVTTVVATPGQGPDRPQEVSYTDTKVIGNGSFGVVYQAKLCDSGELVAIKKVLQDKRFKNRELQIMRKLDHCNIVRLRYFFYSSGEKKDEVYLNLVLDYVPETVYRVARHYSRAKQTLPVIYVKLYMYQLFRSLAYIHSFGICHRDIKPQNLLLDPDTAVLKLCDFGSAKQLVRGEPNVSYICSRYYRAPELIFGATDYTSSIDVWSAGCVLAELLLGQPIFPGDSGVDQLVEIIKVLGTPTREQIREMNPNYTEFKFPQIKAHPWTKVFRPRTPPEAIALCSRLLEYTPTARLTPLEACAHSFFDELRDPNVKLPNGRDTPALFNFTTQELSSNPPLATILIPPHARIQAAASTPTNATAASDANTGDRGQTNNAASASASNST

Take `c1ccc(-c2cc(Nc3cc(C4CC4)[nH]n3)nc(Sc3ccc4ccccc4c3)n2)cc1` [IIIa-1, (5-Cyclopropyl-2H-pyrazol-3-yl)-[2-(naphtalen-2-ylsulfanyl)-6-phenylpyrimidin-4-yl]-amine]: the melting point – broadly, the temperature, or range, at which the solid turns liquid – is 233 to 234 °C. In addition, the Ki (as a rule, the equilibrium dissociation constant of an inhibitor or competing ligand from its target) at human Src kinase (read-out: Ki value on SRC) is below 0.1 µM. Also, at GSK-3β (AA 1-420), the Ki was in the range of 0.1 to 1 µM.

The compound `CC(=O)Nc1ccc(Sc2nc(Nc3cc(C)[nH]n3)c(C)c(-c3ccccc3)n2)cc1` [IIIa-21, [2-(4-Acetamido-phenyl-sulfanyl)-5-methyl-6-phenyl-pyrimidin-4-yl]-(5-methyl-2H-pyrazol-3-yl)-amine] registered a melting point of 276 to 277 °C. In addition, the Ki on human Src kinase (read-out: Ki value for SRC) lay within 1 to 6 µM. For the same compound, the Ki on GSK-3β (AA 1-420) fell in the range of 1 to 7 µM.

Regarding `Cc1cc(Nc2cc(N3CCCCC3)nc(SCc3cccc(Cl)c3)n2)n[nH]1` [IIIa-34, [2-(3-Chloro-benzylsulfanyl)-6-(piperidin-1-yl)-pyrimidin-4-yl]-(5-methyl-2H-pyrazol-3-yl)-amine], the melting point is 234 to 235 °C. The inhibition constant Ki at human Src kinase (read-out: Ki value for SRC) is 1 to 6 µM. For the same compound, at GSK-3β (AA 1-420), the Ki lay within 0.1 to 1 µM.

Compound `COCCNc1cc(Nc2cc(C)[nH]n2)nc(SCc2ccc(S(=O)(=O)N3CCOCC3)cc2)n1` [IIIa-36, {6-(2-Methoxy-ethylamino)-2-[4-(morpholinesulfonyl)-benzylsulfanyl]-pyrimidin-4-yl}-(5-methyl-2H-pyrazol-3-yl)-amine] came in with a melting point of 193 to 195 °C. On human Src kinase (read-out: Ki value for SRC), the inhibition constant (Ki) fell in the range of 1 to 6 µM. For the same compound, at GSK-3β (AA 1-420), the inhibitory constant (Ki) lay in the range of 1 to 7 µM.

`Cc1cc(Nc2cc(N3CCN(C)CC3)nc(SCc3ccc(S(=O)(=O)N4CCOCC4)cc3)n2)n[nH]1` [IIIa-37, {6-(4-methylpiperazin-1-yl)-2-[4-(morpholinesulfonyl)-benzylsulfanyl]-pyrimidin-4-yl}-(5-methyl-2H-pyrazol-3-yl)-amine] returned a melting point of 206 to 207 °C. Further, the inhibition constant (Ki) on human Src kinase (read-out: Ki value for SRC) was in the range of 1 to 6 µM. The compound also gave a Ki on GSK-3β (AA 1-420) of 0.1 to 1 µM.

Take `Cc1cc(Nc2nc(Sc3ccccc3N)nc3ccccc23)n[nH]1` [IIa-20, [2-(2-Aminophenylsulfanyl)-quinazolin-4-yl]-(5-methyl-2H-pyrazol-3-yl)-amine]: the results for the Ki at Aurora-2, on human Src kinase (read-out: Ki value for SRC) and at GSK-3β (AA 1-420) were 0.1 to 1 µM, 1 to 6 µM and 0.1 to 1 µM, respectively.

Compound `c1ccc(Sc2nc(Nc3cc(C4CC4)[nH]n3)c3ccccc3n2)cc1` [IIa-21, (5-Cyclopropyl-2H-pyrazol-3-yl)-(2-phenylsulfanyl-quinazolin-4-yl)-amine] showed a melting point of 233 to 236 °C. Also, at Aurora-2, the Ki is below 0.1 µM. At human Src kinase (read-out: Ki value on SRC), the Ki was below 0.1 µM. At GSK-3β (AA 1-420), this compound yielded a Ki below 0.1 µM.

Regarding `Cc1cccc(Sc2nc(Nc3cc(C4CC4)[nH]n3)c3ccccc3n2)c1` [IIa-23, (5-Cyclopropyl-2H-pyrazol-3-yl)-[2-(3-methylphenylsulfanyl)-quinazolin-4-yl]-amine], the Ki at Aurora-2, at human Src kinase (read-out: Ki value on SRC) and at GSK-3β (AA 1-420) was below 0.1 µM in each case.

For the compound `COc1cccc(Sc2nc(Nc3cc(C4CC4)[nH]n3)c3ccccc3n2)c1` [IIa-24, (5-Cyclopropyl-2H-pyrazol-3-yl)-[2-(3-methoxyphenylsulfanyl)-quinazolin-4-yl]-amine], the Ki at Aurora-2, on human Src kinase (read-out: Ki value on SRC) and on GSK-3β (AA 1-420) was below 0.1 µM throughout.

In turn, `c1ccc2cc(Sc3nc(Nc4cc(C5CC5)[nH]n4)c4ccccc4n3)ccc2c1` [IIa-27, (5-Cyclopropyl-2H-pyrazol-3-yl)-[2-(naphtalen-2-ylsulfanyl)-quinazolin-4-yl]-amine] gave a melting point of 285 to 288 °C. Besides, on Aurora-2, the Ki was below 0.1 µM. Further, at human Src kinase (read-out: Ki value on SRC), the Ki is below 0.1 µM.

Compound `Fc1ccc(Sc2nc(Nc3cc(C4CC4)[nH]n3)c3ccccc3n2)c(F)c1` [IIa-28, (5-Cyclopropyl-2H-pyrazol-3-yl)-[2-(2,4-difluorophenylsulfanyl)-quinazolin-4-yl]-amine] gave a melting point of 250 to 253 °C. The compound further registered an inhibition constant Ki at Aurora-2 below 0.1 µM. The Ki on human Src kinase (read-out: Ki value on SRC) is below 0.1 µM. At GSK-3β (AA 1-420), this compound displayed an inhibitory constant (Ki) below 0.1 µM.

On to `Clc1cccc(Sc2nc(Nc3cc(C4CC4)[nH]n3)c3ccccc3n2)c1Cl` [IIa-30, (5-Cyclopropyl-2H-pyrazol-3-yl)-[2-(2,3-dichlorophenylsulfanyl)-quinazolin-4-yl]-amine], for which the melting point lay in the range of 250 to 252 °C. This compound showed a Ki at Aurora-2 below 0.1 µM. Moreover, the Ki at human Src kinase (read-out: Ki value on SRC) was below 0.1 µM. On GSK-3β (AA 1-420), this compound displayed an inhibitory constant (Ki) below 0.1 µM.

In turn, `Clc1cccc(Sc2nc(Nc3cc(C4CC4)[nH]n3)c3ccccc3n2)c1` [IIa-31, [2-(3-Chlorophenylsulfanyl)-quinazolin-4-yl]-(5-cyclopropyl-2H-pyrazol-3-yl)-amine] displayed a melting point of 235 to 238 °C. Also, the inhibition constant (Ki) at Aurora-2 was below 0.1 µM. Also, at human Src kinase (read-out: Ki value on SRC), the inhibition constant Ki is below 0.1 µM. Also, the Ki on GSK-3β (AA 1-420) is below 0.1 µM.

`Clc1ccccc1Sc1nc(Nc2cc(C3CC3)[nH]n2)c2ccccc2n1` [IIa-32, [2-(2-Chlorophenylsulfanyl)-quinazolin-4-yl]-(5-cyclopropyl-2H-pyrazol-3-yl)-amine] returned a melting point of 255 to 257 °C. The compound also had an inhibition constant Ki on Aurora-2 below 0.1 µM. Also, the Ki on human Src kinase (read-out: Ki value on SRC) was below 0.1 µM. In addition, the inhibition constant Ki on GSK-3β (AA 1-420) was below 0.1 µM.

`Cc1ccc(Sc2nc(Nc3cc(C4CC4)[nH]n3)c3ccccc3n2)cc1C` [IIa-33, (5-Cyclopropyl-2H-pyrazol-3-yl)-[2-(3,4-dimethylphenylsulfanyl)-quinazolin-4-yl]-amine] returned a melting point of 255 to 256 °C. Besides, the inhibitory constant (Ki) at Aurora-2 was below 0.1 µM. Moreover, the inhibition constant (Ki) on human Src kinase (read-out: Ki value on SRC) was below 0.1 µM.

With `CC(=O)Nc1ccc(Sc2nc(Nc3cc(C)n[nH]3)c3ccc(OCCCN4CCOCC4)cc3n2)cc1` [IIa-45, [2-(4-Acetamidophenylsulfanyl)-7-(3-morpholin-4-yl-propoxy)-quinazolin-4-yl]-(5-methyl-2H-pyrazol-3-yl)-amine], the melting point was 153 °C (dec.). For the same compound, the Ki at Aurora-2 was below 0.1 µM. Moreover, the Ki on human Src kinase (read-out: Ki value for SRC) lay within 1 to 6 µM. The compound also showed a Ki at GSK-3β (AA 1-420) of 1 to 7 µM.

In the case of `Cc1cc(Nc2nc(Sc3ccc(C(=O)NCCCN(C)C)cc3)nc3ccccc23)n[nH]1` [IIa-70, {2-[4-(3-Dimethylamino-propylcarbamoyl)-phenylsulfanyl]-quinazolin-4-yl}-(5-methyl-2H-pyrazol-3-yl)-amine], the melting point lay within 210 to 213 °C. Moreover, on Aurora-2, the Ki is 0.1 to 1 µM. The inhibition constant Ki at human Src kinase (read-out: Ki value for SRC) is 1 to 6 µM.

Regarding `c1ccc2c(Nc3cc(C4CC4)[nH]n3)nc(Oc3ccc4c(c3)CCCC4)nc2c1` [IIb-4, (5-Cyclopropyl-2H-pyrazol-3-yl)-[2-(5,6,7,8-tetrahydronaphthalen-2-yloxy)-quinazolin-4-yl]-amine], the melting point fell in the range of 277 to 279 °C. The compound further registered a Ki on Aurora-2 below 0.1 µM. The inhibition constant Ki at human Src kinase (read-out: Ki value on SRC) was below 0.1 µM.

In the case of `COC(=O)c1cccc(Oc2nc(Nc3cc(C)[nH]n3)c3ccccc3n2)c1` [IIb-9, [2-(3-Methoxycarbonylphenoxy)-quinazolin-4-yl]-(5-methyl-2H-pyrazol-3-yl)-amine], the inhibition constant (Ki) on Aurora-2 was below 0.1 µM; at human Src kinase (read-out: Ki value for SRC), 1 to 6 µM; at GSK-3β (AA 1-420), 0.1 to 1 µM.

Consider `Cc1cc(Nc2nc(NCc3ccc(F)cc3)nc3ccccc23)n[nH]1` [IIc-13, [2-(4-Fluorobenzylamino)-quinazolin-4-yl]-(5-methyl-2H-pyrazol-3-yl)-amine], for which the Ki on Aurora-2 is below 0.1 µM; on human Src kinase (read-out: Ki value on SRC), below 0.1 µM; on GSK-3β (AA 1-420), 0.1 to 1 µM.
